Measurements published in US20250332173A1, “COMPOUNDS AND METHODS FOR MODULATING NUCLEIC ACID SPLICING” (REMIX THERAPEUTICS INC., priority 2021, published 2025).
Structures can show the parent of a compound that is named as a salt. Where two headings read alike, the source gives them in different places.

Key:
SMN2 mRNA = test: RT-qPCR splicing assay, SMN2 canonical junction (CJ) mRNA; type: cell-based, human; conditions: Homo sapiens; Table 5 panel; canonical junction qPCR; compound concentration having 50% response in CJ decrease; read-out: SMN2 IC50 (decrease in CJ mRNA levels)
Summary of the method: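 Read-out is canonical exon-exon junction mRNA quantified by RT-qPCR against a GAPDH, GUSB or PPIA control. Cells (A673 or K562) received compound for 24 h, top final dose 10 uM in an 11-point 3-fold series.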

HTT mRNA = test: RT-qPCR splicing assay, HTT canonical junction (CJ) and alternative junction (AJ) mRNA; type: cell-based, human; conditions: Homo sapiens; for AC50: increase in HTT alternative junction (AJ) mRNA, read-out: HTT AJ AC50
Summary of the method: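 Read-out is one-step RT-qPCR on cell lysates detecting the exon-exon junction of each isoform, normalized to a housekeeping gene (PPIA in A673, GAPDH or GUSB in K562).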

[1] = decrease in HTT canonical junction (CJ) mRNA, RT-qPCR, read-out: HTT CJ IC50
[2] = Table 5 panel, canonical junction qPCR, compound concentration having 50% response in CJ decrease, read-out: HTT IC50 (decrease in CJ mRNA levels)

SMILES	IC50 (SMN2 mRNA) [nM]	IC50 (HTT mRNA; [1]) [nM]	IC50 (HTT mRNA; [2]) [nM]	AC50 (HTT mRNA; RT-qPCR) [nM]
CCOC(=O)c1cc(-c2ccc3c(=O)n(C4CCNCC4)ccc3c2)nn2cc(C)nc12 [Compound 529, ethyl 2-methyl-6-[1-oxo-2-(4-piperidyl)-6-isoquinolyl]imidazo[1,2-b]pyridazine-8-carboxylate]	< 100	1000 to 10000	100 to 1000	100 to 1000
Cc1cn2nc(-c3ccc4c(=O)n(C5CCNCC5)ccc4c3)cc(-n3ccc(=O)cc3)c2n1 [Compound 551, 6-[2-methyl-8-(4-oxo-1-pyridyl)imidazo[1,2-b]pyridazin-6-yl]-2-(4-piperidyl)isoquinolin-1-one]	100 to 1000	100 to 1000	100 to 1000	100 to 1000
Cc1cc(-c2ccc3c(=O)n(C4CC(C)(C)NC(C)(C)C4)cnc3n2)cc2cn(C)nc12 [Compound 179]	1000 to 10000	> 10000	> 10000	> 10000
Cc1cn2nc(-c3ccc4c(=O)n(C5CCNCC5)ccc4c3)cc(Cc3nnn[nH]3)c2n1 [Compound 536, 6-[2-methyl-8-(1H-tetrazol-5-ylmethyl)imidazo[1,2-b]pyridazin-6-yl]-2-(4-piperidyl) isoquinolin-1-one]	1000 to 10000	> 10000	> 10000	> 10000
Cc1nc2c(C)cc(-c3cc(F)c4c(=O)n(C5CCNC6(CC6)C5)ncc4c3)cc2o1 (stereo not drawn) [Compound 555]	< 100	< 100	< 100	< 100
Cc1cn2nc(-c3ccc4c(=O)n(C5CCNCC5)ccc4c3)cc(Oc3cccnc3)c2n1 [Compound 550, 6-[2-methyl-8-(3-pyridyloxy)imidazo[1,2-b]pyridazin-6-yl]-2-(4-piperidyl)isoquinolin-1-one]	< 100	< 100	< 100	< 100
Cc1cn2nc(-c3cc(F)c4c(=O)n(C5CCN(CCF)CC5)ncc4c3)cc(C)c2n1 [Compound 538]	< 100	< 100	< 100	< 100
Cc1cn2nc(-c3ccc4c(=O)n(C5CCNCC5)ccc4c3)cc(C(=O)O)c2n1 [Compound 516, 2-methyl-6-[1-oxo-2-(4-piperidyl)-6-isoquinolyl]imidazo[1,2-b]pyridazine-8-carboxylic acid]	1000 to 10000	1000 to 10000	1000 to 10000	1000 to 10000
Cc1cn2nc(-c3ccc4c(=O)n(C5CCNCC5)ccc4c3)cc(CCO)c2n1 [Compound 533, 6-[8-(2-hydroxyethyl)-2-methyl-imidazo[1,2-b]pyridazin-6-yl]-2-(4-piperidyl)isoquinolin-1-one]	< 100	100 to 1000	100 to 1000	100 to 1000
COC(=O)c1cc(-c2ccc3c(=O)n(C4CCNCC4)ccc3c2)nn2cc(C)nc12 [Compound 517, methyl 2-methyl-6-[1-oxo-2-(4-piperidyl)-6-isoquinolyl]imidazo[1,2-b]pyridazine-8-carboxylate]	< 100	1000 to 10000	1000 to 10000	1000 to 10000
Cc1cn2nc(-c3ccc4c(=O)n(C5CCNCC5)ccc4c3)cc(CO)c2n1 [Compound 525, 6-[8-(hydroxymethyl)-2-methyl-imidazo[1,2-b]pyridazin-6-yl]-2-(4-piperidyl) isoquinolin-1-one]	< 100	100 to 1000	< 100	< 100
CN1CCN(c2ccc3c(=O)n(-c4ccc5cn(C)nc5c4)cnc3c2)CC1 [Compound 178]	> 10000	> 10000	> 10000	> 10000
Cc1cn2nc(-c3ccc4c(=O)n(C5CCNCC5)ccc4c3)cc(Oc3cccc(F)c3)c2n1 [Compound 545, 6-[8-(3-fluorophenoxy)-2-methyl-imidazo[1,2-b]pyridazin-6-yl]-2-(4-piperidyl)isoquinolin-1-one; hydrochloride]	< 100	< 100	< 100	< 100
Cc1cn2cc(-c3cc(O)c4c(=O)n(C5CCNC6(CC6)C5)ncc4c3)cc(Cl)c2n1 (stereo not drawn) [Compound 557]	< 100	100 to 1000	100 to 1000	100 to 1000
Cc1cn2nc(-c3ccc4c(=O)n(C5CCN(CCF)CC5)ncc4c3)cc(C)c2n1 [Compound 515]	< 100	100 to 1000	100 to 1000	100 to 1000
CN1CCC(c2ccc3c(=O)n(-c4ccc5nn(C)cc5c4)cnc3c2)CC1 [Compound 177]	> 10000	> 10000	> 10000	> 10000
Cc1cn2nc(-c3ccc4c(=O)n(C5CCNCC5)ccc4c3)cc(-n3ccccc3=O)c2n1 [Compound 552, 6-[2-methyl-8-(2-oxo-1-pyridyl)imidazo[1,2-b]pyridazin-6-yl]-2-(4-piperidyl)isoquinolin-1-one]	> 10000	> 10000	> 10000	> 10000

The next lines start with results.

IC50 (SMN2 mRNA) [nM]	IC50 (HTT mRNA; [1]) [nM]	IC50 (HTT mRNA; [2]) [nM]	SMILES	AC50 (HTT mRNA; RT-qPCR) [nM]
< 100	1000 to 10000	100 to 1000	Cc1cn2cc(-c3cc4ncn(C5CCNCC5)c(=O)c4cc3F)cc(F)c2n1 [Compound 586, 6-fluoro-7-{8-fluoro-2-methylimidazo[1,2-a]pyridin-6-yl}-3-(piperidin-4-yl)quinazolin-4-one]	100 to 1000
100 to 1000	> 10000	> 10000	Cc1cn2cc(-c3cc(F)c4c(=O)n([C@@H]5CNC[C@@H]5C)ccc4c3)cc(F)c2n1 [Compound 653, 8-fluoro-6-(8-fluoro-2-methyl-imidazo[1,2-a]pyridin-6-yl)-2-[(3S,4S)-4-methylpyrrolidin-3-yl]isoquinolin-1-one]	> 10000
100 to 1000	> 10000	1000 to 10000	Cc1cn2nc(-c3cc(N)c4c(=O)n([C@H]5CCNC5)ccc4c3)cc(C)c2n1 [Compound 645, 8-amino-6-(2,8-dimethylimidazo[1,2-b]pyridazin-6-yl)-2-[(3S)-pyrrolidin-3-yl]isoquinolin-1-one]	1000 to 10000
< 100	100 to 1000	100 to 1000	Cc1cn2cc(-c3cc(O)c4c(=O)n(C5CCNCC5)cnc4c3)cc(F)c2n1 [Compound 587, 7-{8-fluoro-2-methylimidazo[1,2-a]pyridin-6-yl}-5-hydroxy-3-(piperidin-4-yl)quinazolin-4-one]	100 to 1000
< 100	1000 to 10000	100 to 1000	Cc1cn2nc(-c3cc4ccn([C@@H]5CCNC5)c(=O)c4cc3O)cc(C)c2n1 [Compound 640, 6-(2,8-dimethylimidazo[1,2-b]pyridazin-6-yl)-7-hydroxy-2-[(3R)-pyrrolidin-3-yl]isoquinolin-1-one]	100 to 1000
100 to 1000	> 10000	> 10000	Cc1cn2nc(-c3cc(N)c4c(=O)n([C@@H]5CCNC5)ccc4c3)cc(C)c2n1 [Compound 646, 8-amino-6-(2,8-dimethylimidazo[1,2-b]pyridazin-6-yl)-2-[(3R)-pyrrolidin-3-yl]isoquinolin-1-one]	> 10000
< 100	100 to 1000	< 100	Cn1cc2cc(-c3ncc4c(=O)n(C5CCNCC5)ccc4n3)c(O)c(F)c2n1 [Compound 1123]	< 100
< 100	1000 to 10000	1000 to 10000	CCc1cn(C2CCNCC2)c(=O)c2c(F)cc(-c3cc(F)c4nc(C)cn4c3)cc12 [Compound 558, 4-ethyl-8-fluoro-6-{8-fluoro-2-methylimidazo[1,2-a]pyridin-6-yl}-2-(piperidin-4-yl)isoquinolin-1-one]	1000 to 10000
< 100	1000 to 10000	100 to 1000	Cc1cn2cc(-c3ccc4c(=O)n(C5CCNCC5)ccc4c3)cc(C#N)c2n1 [Compound 560, 2-methyl-6-[1-oxo-2-(piperidin-4-yl)isoquinolin-6-yl]imidazo[1,2-a]pyridine-8-carbonitrile]	100 to 1000
100 to 1000	1000 to 10000	1000 to 10000	Cc1cn2nc(-c3cc4ncn(C5CCNCC5)c(=O)c4cc3F)cc(C)c2n1 [Compound 585, 7-{2,8-dimethylimidazo[1,2-b]pyridazin-6-yl}-6-fluoro-3-(piperidin-4-yl)quinazolin-4-one]	1000 to 10000
< 100	1000 to 10000	100 to 1000	Cc1cn2nc(-c3cc4ccn([C@H]5CCNC5)c(=O)c4cc3O)cc(C)c2n1 [Compound 641, 6-(2,8-dimethylimidazo[1,2-b]pyridazin-6-yl)-7-hydroxy-2-[(3S)-pyrrolidin-3-yl]isoquinolin-1-one]	100 to 1000
1000 to 10000	> 10000	> 10000	CC(=O)Nc1cc(-c2cc(C)c3nc(C)cn3n2)cc2ccn([C@@H]3CCNC3)c(=O)c12 [Compound 650, N-[6-(2,8-dimethylimidazo[1,2-b]pyridazin-6-yl)-1-oxo-2-[(3R)-pyrrolidin-3-yl]-8-isoquinolyl]acetamide]	> 10000
100 to 1000	1000 to 10000	1000 to 10000	CC(=O)Nc1cc(-c2cc(C)c3nc(C)cn3n2)cc2ccn([C@H]3CCNC3)c(=O)c12 [Compound 649, N-[6-(2,8-dimethylimidazo[1,2-b]pyridazin-6-yl)-1-oxo-2-[(3S)-pyrrolidin-3-yl]-8-isoquinolyl]acetamide]	1000 to 10000
